Earlier results on one compound are cited in patent publication US9682063B2, “HCD formulation for cancer treatment” (National Dong Hwa University, priority 2015, dated 2017).

Structures are written as SMILES.

One data set has as its system CML K562 cells. As to conditions: background statement.
The conditions of data set [1]: background statement.

As to `CC1=CCCC2C1(C)CCC(C)C2(C)CCC1=CC(=O)OC1O` (centres unmarked) [HCD, 16-Hydroxycleroda-3,13-dien-15,16-olide], the “apoptosis in CML K562 cells” value in the data set with CML K562 cells is given as “induces apoptosis in CML K562 cells”. Also, in data set [1], the water solubility entry is reported as “poor water solubility”.
